Results as given in US6284768A, “Src family SH2 domain inhibitors” (Boehringer Ingelheim Pharmaceuticals, Inc., priority 1999, dated 2001).

Molecular target: T1, p56lck GST-SH2 (lck SH2 domain) (Homo sapiens, UniProt P06239)
T1 construct: GST (N)
Assay: Receptor-ligand equilibrium binding constants by surface plasmon resonance (biosensor), lck SH2 domain
Description: The general methods for the determination of Receptor-Ligand Kinetic and Equilibrium Binding Constants using Surface Plasmon Resonance as applied to the lck SH2 Domain have been described in: M. M. Morelock, R. H. Ingraham, R. Betageri.
General Biosensor Methods.
The mobile phase buffer, 10 mM HEPES, pH 7.4, 150 mM NaCl, and 0.05% P-20, was maintained at a flow rate of 5 μL/min in all experiments. All buffers and protein solutions were filtered through a 0.2 um filter and degassed immediately before use.
Strepavidin was diluted to 0.25 mg/ml in 20 mM NaOAc buffer, pH 4.5 and immobilized by free amine coupling to approximately 3000 RU for all 4 flow cells from a single sensor chip .
Surface Kd Determinations.
The surface was regenerated by 4μL of 20 mM HCl followed by 4 μL of 150 mM Tris base. The values used in the analysis were the equilibrium plateau values from which the sample refractive index has been subtracted. For the data analyzed for linear function the equilibrium plateau values without the sample refractive index subtracted were used. Free solution Kd determinations. In a 96 well microtiter plate 20 nM SH2 domain suspended in running buffer containing 0.2 mg/ml BSA and 1 mM DT'T was distributed in 100 μL per well. The highest concentration of compound tested was added to the last well and titrated with 2 fold dilutions for a final of 10 concentrations to be run. 25 μL of the mixture was injected over a strepavidin-biotin-ε-aminohexanoic acid-EGQpYEEIPIA surface and regenerated with 4 μL of 20 mM HCl. […], of 150 mM Tris base was injected after every 11 samples. Typically 8 assays were run in an overnight programmed run.

[1] = Table 1, compounds of formula (II)

T1 sequence (P06239 127-224 limits assumed): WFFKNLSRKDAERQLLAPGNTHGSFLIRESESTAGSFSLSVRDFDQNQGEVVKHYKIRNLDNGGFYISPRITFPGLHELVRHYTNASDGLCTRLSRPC

Kd [1] [µM]	Kd (Table 2, compounds of formula (III)) [µM]	Compound
4.3	–	COc1ccc(Cn2ccc(C)c(NC(=O)[C@H](Cc3ccc(N(O)C(=O)C(=O)O)cc3)NC(=O)Cc3ccc(N(C)C)cc3)c2=O)cc1 [Compound 26]
14	–	COc1ccc(Cn2ccc(C)c(NC(=O)[C@H](Cc3ccc(CC(=O)O)cc3)NC(=O)Cc3ccc(Oc4ccccc4)cc3)c2=O)cc1 [Compound 71]
4.3	–	COc1ccc(Cn2ccc(C)c(NC(=O)C(Cc3ccc(C(C)(C)C(=O)O)cc3)NC(=O)C(C)(C)C)c2=O)cc1 (centres unmarked) [Compound 171]
1.7	–	CCCCCCn1ccc(C)c(NC(=O)C(Cc2ccc(C(C)(C)C(=O)O)cc2)NC(=O)Cc2ccccc2OC)c1=O (centres unmarked) [Compound 207]
0.89	–	CCCCCCn1ccc(C)c(NC(=O)C(Cc2ccc(C(C)(C)C(=O)O)cc2)NC(=O)Cc2cccs2)c1=O (centres unmarked) [Compound 206]
89	–	CCCCCn1ccc(C)c(NC(=O)[C@H](Cc2ccc(CC(=O)O)cc2)NC(=O)C(C)(C)C)c1=O [Compound 69]
23	–	COc1ccc(C(C)n2ccc(C)c(NC(=O)[C@H](Cc3ccc(CC(=O)O)cc3)NC(C)=O)c2=O)cc1 (some centres unmarked) [Compound 81]
9	–	Cc1ccn(Cc2ccccc2)c(=O)c1NC(=O)C(Cc1ccc(C(C)(C)C(=O)O)cc1)NC(=O)Cc1cccc2ccccc12 (centres unmarked) [Compound 197]
3.1	–	COCCCCn1ccc(C)c(NC(=O)C(Cc2ccc(C(C)(C)C(=O)O)cc2)NC(=O)Cc2ccc3ccccc3c2)c1=O (centres unmarked) [Compound 237]
4.1	–	CCCCCn1ccc(C)c(NC(=O)C(Cc2ccc(C(C)(C)C(=O)O)cc2)NC(=O)C(C)(C)c2ccc3ccccc3c2)c1=O (centres unmarked) [Compound 193]
2.5	–	COc1ccc(Cn2ccc(C)c(NC(=O)[C@H](Cc3ccc(CC(=O)O)cc3)NC(=O)COc3cccc4ccccc34)c2=O)cc1 [Compound 72]
17.7	–	Cc1ccn(Cc2ccccc2)c(=O)c1NC(=O)[C@H](Cc1ccc(CC(=O)O)cc1)NC(=O)Cc1cccc2ccccc12 [Compound 18]
3.6	–	COC1CCC(Cn2ccc(C)c(NC(=O)C(Cc3ccc(C(C)(C)C(=O)O)cc3)NC(=O)Cc3ccc(C(F)(F)F)cc3)c2=O)CC1 (centres unmarked) [Compound 148]
5.4	–	COc1ccc(Cn2ccc(C)c(NC(=O)[C@H](Cc3ccc(N(O)C(=O)C(=O)O)cc3)NC(C)=O)c2=O)cc1 [Compound 95]
13	–	COCCOCn1ccc(C)c(NC(=O)C(Cc2ccc(C(C)(C)C(=O)O)cc2)NC(=O)Cc2ccc3ccccc3c2)c1=O (centres unmarked) [Compound 189]
8.6	–	COc1ccc(Cn2ccc(C)c(NC(=O)[C@H](Cc3ccc(CC(=O)O)cc3)NC(=O)C(C)(C)c3ccccc3)c2=O)cc1 [Compound 76]
6.7	–	COc1ccc(Cn2ccc(C)c(NC(=O)[C@H](Cc3ccc(CC(=O)O)cc3)NC(=O)C(C)C)c2=O)cc1 [Compound 75]
33	–	COc1ccc(Cn2ccc(C)c(NC(=O)C(Cc3ccc(C(C)(C)C(=O)O)cc3)NC(=O)C(C)(C)c3ccc4ccccc4c3)c2=O)cc1O (centres unmarked) [Compound 232]
5.1	–	COc1ccc(Cn2ccc(C)c(NC(=O)[C@H](Cc3ccc(C(C)C(=O)O)cc3)NC(=O)Cc3cccc4ccccc34)c2=O)cc1 (some centres unmarked) [Compound 3]
> 250	–	COc1ccc(Cn2cccc(NC(=O)[C@H](Cc3ccc(CC(=O)O)cc3)NC(=O)Cc3cccc4ccccc34)c2=O)cc1 [Compound 90]
1.5	–	COc1ccc(Cn2ccc(C)c(NC(=O)[C@H](Cc3ccc(CS(=O)(=O)O)cc3)NC(=O)Cc3cccc4ccccc34)c2=O)cc1 [Compound 42, 3-[2'-(S)-(1'"-Naphthylacetyl)amino-3'-(4"-sulfonylmethyl)benzene]propanoylamino-1-(4-methoxybenzyl)-4-methyl-2-pyridone]

Kd [1] [µM]	Kd (Table 2, compounds of formula (III)) [µM]	Compound
20	–	COCCOCCn1ccc(C)c(NC(=O)C(Cc2ccc(C(C)(C)C(=O)O)cc2)NC(=O)C(C)(C)c2ccc3ccccc3c2)c1=O (centres unmarked) [Compound 144]
3.2	–	Cc1ccn(C/C=C/c2ccccc2)c(=O)c1NC(=O)C(Cc1ccc(C(C)(C)C(=O)O)cc1)NC(=O)C(C)(C)c1ccc2ccccc2c1 (racemic) [Compound 116]
2.8	–	COc1ccc(Cn2ccc(C)c(NC(=O)[C@H](Cc3ccc(CC(=O)O)cc3)NC(=O)Cc3cccc(O)c3)c2=O)cc1 [Compound 165]
0.18	–	COc1ccc(Cn2ccc(C)c(NC(=O)[C@H](Cc3ccc(C(C)(C)C(=O)O)cc3)NC(=O)Cc3ccc(Br)cc3)c2=O)cc1 [Compound 110]
39	–	COc1ccc(Cn2ccc(C)c(NC(=O)[C@H](Cc3ccc(C(CO)C(=O)O)cc3)NC(=O)OCc3ccccc3)c2=O)cc1 (stereo partly drawn) [Compound 50, 3-[2-(S)-Benzyloxycarbonylamino-3-[4'-(1"-(R,S)-carboxy-2"-hydroxy)ethyl]benzene]propanoylamino-1-(4-methoxybentyl)-4-methyl-2-pyridone]
2.1	–	COc1ccc(Cn2ccc(C)c(NC(=O)[C@H](Cc3ccc(NC(=O)C(=O)O)cc3)NC(=O)Cc3ccc(NC(C)C)cc3)c2=O)cc1 [Compound 47]
37.2	–	COc1ccccc1Cn1ccc(C)c(NC(=O)[C@H](Cc2ccc(CC(=O)O)cc2)NC(=O)Cc2cccc3ccccc23)c1=O [Compound 19]
2.5	–	Cc1ccn(Cc2ccccc2)c(=O)c1NC(=O)C(Cc1ccc(C(C)(C)C(=O)O)cc1)NC(=O)Cc1ccc2ccccc2c1 (centres unmarked) [Compound 198]
460	–	COc1ccc(Cn2ccc(C)c(NC(=O)C(Cc3ccc(C(C)(C)C(=O)O)cc3)N(C)C(=O)C(C)(C)c3ccc4ccccc4c3)c2=O)cc1 (centres unmarked) [Compound 161]
41	–	Cc1ccn(Cc2ccc(C(=O)C(F)(F)F)cc2)c(=O)c1NC(=O)C(Cc1ccc(C(C)(C)C(=O)O)cc1)NC(=O)C(C)(C)c1ccc2ccccc2c1 (centres unmarked) [Compound 225]
2.9	–	COc1ccc(Cn2ccc(C)c(NC(=O)[C@H](Cc3ccc(NC(=O)C(=O)O)cc3)NC(=O)Cc3sc(N)nc3-c3ccccc3)c2=O)cc1 [Compound 11]
0.24	–	COc1ccc(Cn2ccc(C)c(NC(=O)[C@H](Cc3ccc(NC(=O)C(=O)O)cc3)NC(=O)Cc3cccc4ccccc34)c2=O)cc1 [Compound 52]
21	–	COc1cc(Cn2ccc(C)c(NC(=O)C(Cc3ccc(C(C)(C)C(=O)O)cc3)NC(=O)Cc3ccc4ccccc4c3)c2=O)cc(OC)c1OC (centres unmarked) [Compound 157]
0.65	–	COc1ccc(Cn2ccc(C)c(NC(=O)[C@H](Cc3ccc(NC(=O)C(=O)O)cc3)NC(=O)Cc3cccc(Br)c3)c2=O)cc1 [Compound 37]
0.5	–	COc1ccc(Cn2ccc(C)c(NC(=O)[C@H](Cc3ccc(NC(=O)C(=O)O)cc3)NC(=O)Cc3ccc(NCC(C)(C)C)cc3)c2=O)cc1 [Compound 48]
13	–	COc1ccc(Cn2ccc(C)c(NC(=O)[C@H](Cc3ccc(CC(=O)O)cc3)NC(=O)C3(c4ccccc4)CCCC3)c2=O)cc1 [Compound 78]
1.2	–	COc1ccc(Cn2ccc(C)c(NC(=O)[C@H](Cc3ccc(NC(=O)C(=O)O)cc3)NC(=O)CN3CCc4ccccc4C3)c2=O)cc1 [Compound 29]
0.65	–	COc1ccc(Cn2ccc(C)c(NC(=O)[C@H](Cc3ccc(NC(=O)C(=O)O)cc3)NC(=O)Cc3ccc(NC(=O)C(C)(C)C)cc3)c2=O)cc1 [Compound 104]
–	23	COc1ccc(Cn2ncc(C)c(NC(=O)C(Cc3ccc(C(C)(C)C(=O)O)cc3)NC(=O)Cc3ccccc3)c2=O)cc1 (centres unmarked) [Compound 245]
2.7	–	CCCCCCn1cc(C(=O)OC)c(C)c(NC(=O)C(Cc2ccc(C(C)(C)C(=O)O)cc2)NC(=O)C(C)(C)c2ccc3ccccc3c2)c1=O (centres unmarked) [Compound 121]
